What follows are compounds tested against recombinant USP30 (amino acids 57-517 of the human sequence) (Homo sapiens (Human), UniProt Q70CQ3) (assay: In vitro USP30 biochemical assay (Ubiquitin-Rhodamine substrate)). Conditions: 1.5 nM recombinant USP30, 25 nM Ubiquitin-Rhodamine, fluorescence.
Protocol: In vitro biochemical assay to establish the potency of compounds for USP30 inhibition: a 384-well plate assay using a fluorophore tagged substrate of USP30 was used for in vitro screening of compounds. Each compound was tested at
10 different concentrations (0.5 to 10,000 nM) in duplicate wells. […] Data were analyzed using Graph Pad Prism software with a four-parameter (floating slope) fit to log concentration data to determine IC50s.

recombinant USP30 (amino acids 57-517 of the human sequence), sequence (Q70CQ3 57-517): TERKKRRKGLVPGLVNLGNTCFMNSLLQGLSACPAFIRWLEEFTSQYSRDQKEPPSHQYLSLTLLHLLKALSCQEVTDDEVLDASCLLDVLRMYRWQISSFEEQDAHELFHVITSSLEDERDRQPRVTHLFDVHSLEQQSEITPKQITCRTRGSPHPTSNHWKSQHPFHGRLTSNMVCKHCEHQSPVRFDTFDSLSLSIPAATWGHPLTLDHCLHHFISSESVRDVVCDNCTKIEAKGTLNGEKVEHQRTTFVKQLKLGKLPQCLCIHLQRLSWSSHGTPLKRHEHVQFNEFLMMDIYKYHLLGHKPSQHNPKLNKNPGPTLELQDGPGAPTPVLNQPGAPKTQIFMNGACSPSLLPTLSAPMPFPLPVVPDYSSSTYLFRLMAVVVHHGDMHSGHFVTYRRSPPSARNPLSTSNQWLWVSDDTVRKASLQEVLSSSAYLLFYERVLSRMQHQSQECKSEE

`CCN1CCC(C[C@H](NC(=O)c2ccc(F)cc2)C(=O)Nc2ccc(S(=O)(=O)NC(C)(C)CO)cc2)CC1` [Compound I-45] and `CC(C)(CO)NS(=O)(=O)c1ccc(NC(=O)[C@H](CC2CC2)NC(=O)c2ccc(F)cc2)cc1` [Compound I-46] fall in the same range of IC50: 0.05 to 1 µM for the first, 0.05 to 1 µM for the second.

Compared with `CC(C)(CN1CCOCC1)NS(=O)(=O)c1ccc(NC(=O)[C@H](CC2CC2)NC(=O)c2ccc(F)cc2)cc1` [Compound I-47], `CC(C)(CN1CCOCC1)NS(=O)(=O)c1ccc(NC(=O)[C@@H](NC(=O)c2ccc(F)cc2)C2CC2)cc1` [Compound I-53] is higher in IC50: 0.05 to 1 µM for the first, 1 to 10 µM for the second. The first is the more potent here.

Compared with `O=C(N[C@@H](CC1CC1)C(=O)Nc1ccc(S(=O)(=O)NC2COC2)cc1)c1ccc(F)cc1` [Compound I-48], `O=C(NC(CC1CCNCC1)C(=O)Nc1ccc(S(=O)(=O)NC2COC2)cc1)c1ccc(F)cc1` (stereo not drawn) [Compound I-120] is lower in IC50: 1 to 10 µM for the first, 0.05 to 1 µM for the second. The second is the more potent here.

First: CC(C)(C)NS(=O)(=O)c1ccc(NC(=O)[C@@H]2C[C@@H](c3ccccc3)CN2C(=O)c2ccc(F)cc2)cc1 [Compound I-49, (2S,4S)—N-(4-(N-(tert-butyl)sulfamoyl)phenyl)-1-(4-fluorobenzoyl)-4-phenylpyrrolidine-2-carboxamide]
Second: CC(C)(C)NS(=O)(=O)c1ccc(NC(=O)[C@@H]2CCCN2C(=O)c2ccc(F)cc2)cc1 [Compound I-50, (S)—N-(4-(N-tert-butylsulfamoyl)phenyl)-1-(4-fluorobenzoyl)pyrrolidine-2-carboxamide]
The IC50 of the first is lower: 0.05 to 1 µM for the first, 1 to 10 µM for the second. The first is the more potent here.

`CC(C)(CO)NS(=O)(=O)c1ccc(NC(=O)[C@@H](NC(=O)c2ccc(F)cc2)C2CC2)cc1` [Compound I-52] and `O=C(N[C@H](C(=O)Nc1ccc(S(=O)(=O)NC2COC2)cc1)C1CC1)c1ccc(F)cc1` [Compound I-54, (S)—N-(1-cyclopropyl-2-((4-(N-(oxetan-3-yl)sulfamoyl)phenyl)amino)-2-oxoethyl)-4-fluorobenzamide] fall in the same range of IC50: 1 to 10 µM for the first, 1 to 10 µM for the second.

`CC(C)(C)NC(=O)N1CCC(NC(=O)[C@H](Cc2ccccc2)NC(=O)c2ccc(F)cc2)CC1` [Compound I-57, (S)—N-(tert-butyl)-4-(2-(4-fluorobenzamido)-3-phenylpropanamido)piperidine-1-carboxamide] and `CC(C)(C)NS(=O)(=O)N1CCC(NC(=O)[C@H](Cc2ccccc2)NC(=O)c2ccc(F)cc2)CC1` [Compound I-58, (S)—N-(1-((1-(N-(tert-butyl)sulfamoyl)piperidin-4-yl)amino)-1-oxo-3-phenylpropan-2-yl)-4-fluorobenzamide] fall in the same range of IC50: 1 to 10 µM for the first, 1 to 10 µM for the second.

First: O=C(N[C@@H](Cc1ccccc1)C(=O)Nc1ccc(S(=O)(=O)NC23CC(C2)C3)c(O)c1)c1ccc(F)cc1 [Compound I-64]
Second: COc1cc(NC(=O)[C@H](Cc2ccccc2)NC(=O)c2ccc(F)cc2)c(Cl)cc1S(=O)(=O)NC1(CO)CC1 [Compound I-139]
The IC50 of the first is lower: 0.05 to 1 µM for the first, 1 to 10 µM for the second. The first is the more potent here.

`COc1cc(NC(=O)[C@H](CC(C)C)NC(=O)c2ccc(F)cc2)cnc1S(=O)(=O)NC(C)(C)CO` [Compound I-73] and `COc1cc(NC(=O)[C@H](CC2CCN(C)CC2)NC(=O)c2ccc(F)cc2)cnc1S(=O)(=O)NC(C)(C)CO` [Compound I-100] fall in the same range of IC50: 1 to 10 µM for the first, 1 to 10 µM for the second.

`CC(C)(CO)NS(=O)(=O)c1ccc(NC(=O)[C@H](CC2CCOCC2)NC(=O)c2ccc(F)cc2)cn1` [Compound I-74] and `COc1cc(NC(=O)[C@H](CC2CCOCC2)NC(=O)c2ccc(F)cc2)cnc1S(=O)(=O)NC(C)(C)CO` [Compound I-76] fall in the same range of IC50: 0.05 to 1 µM for the first, 0.05 to 1 µM for the second.

`COc1cc(NC(=O)[C@H](CC2CCOCC2)NC(=O)c2ccc(F)cc2)cnc1S(=O)(=O)NC(C)(C)C` [Compound I-75] and `COc1cc(NC(=O)[C@H](CC2CCN(C)CC2)NC(=O)c2ccc(F)cc2)cnc1S(=O)(=O)NC(C)(C)C` [Compound I-80] fall in the same range of IC50: 0.05 to 1 µM for the first, 0.05 to 1 µM for the second.

First: CC(C)(C)NS(=O)(=O)c1ccc(NC(=O)[C@@H](NC(=O)c2ccc(F)cc2)C(C)(C)C)cc1 [Compound I-77]
Second: CN1CCC(C[C@H](NC(=O)c2ccc(F)cc2)C(=O)Nc2ccc(S(=O)(=O)NC(C)(C)CF)cc2)CC1 [Compound I-127]
The IC50 of the first is higher: 1 to 10 µM for the first, 0.05 to 1 µM for the second. The second is the more potent here.

First: COc1cc(NC(=O)[C@H](CC2CCOCC2)NC(=O)c2ccc(F)cc2)cnc1S(=O)(=O)NC1CCC1 [Compound I-81]
Second: COc1cc(NC(=O)[C@H](CC2CCOCC2)NC(=O)c2ccc(F)cc2)cnc1S(=O)(=O)NC1CCN(C)CC1 [Compound I-83]
The IC50 of the first is lower: 0.05 to 1 µM for the first, 1 to 10 µM for the second.

`COc1cc(NC(=O)[C@H](CC2CCOCC2)NC(=O)c2ccc(F)cc2)ccc1S(=O)(=O)NC1CCN(C)CC1` [Compound I-88] and `COc1cc(NC(=O)[C@H](CC2CCN(C)CC2)NC(=O)c2ccc(F)cc2)ccc1S(=O)(=O)N[C@@H]1CCOC1` [Compound I-95] fall in the same range of IC50: 0.05 to 1 µM for the first, 0.05 to 1 µM for the second.

First: COc1cc(NC(=O)[C@H](CC2CCN(C)CC2)NC(=O)c2ccc(F)cc2)ccc1S(=O)(=O)NC1COC1 [Compound I-96]
Second: CN1CCC(C[C@H](NC(=O)c2ccc(F)cc2)C(=O)Nc2ccc(S(=O)(=O)NC3COC3)nc2)CC1 [Compound I-104]
The IC50 of the first is lower: 0.05 to 1 µM for the first, 1 to 10 µM for the second.

First: CN1CCC(NS(=O)(=O)c2ccc(NC(=O)[C@H](CC3CCOCC3)NC(=O)c3ccc(F)cc3)cn2)CC1 [Compound I-98]
Second: CN1CCC(C[C@H](NC(=O)c2ccc(F)cc2)C(=O)Nc2ccc(S(=O)(=O)NC3CCOCC3)nc2)CC1 [Compound I-140]
The IC50 of the first is higher: 1 to 10 µM for the first, 0.05 to 1 µM for the second. The second is the more potent here.

First: O=C(N[C@@H](CC1CCNCC1)C(=O)Nc1ccc(S(=O)(=O)N[C@@H]2CCOC2)nc1)c1ccc(F)cc1 [Compound I-108]
Second: O=C(N[C@@H](CC1CCNCC1)C(=O)Nc1ccc(S(=O)(=O)NC2COC2)nc1)c1ccc(F)cc1 [Compound I-111]
The IC50 of the first is lower: 0.05 to 1 µM for the first, 1 to 10 µM for the second. The first is the more potent here.

`N#CN1CC[C@H](NC(=O)[C@H](Cc2ccccc2)NC(=O)c2ccc(F)cc2)C1` [Compound I-123] and `COc1cc(NC(=O)[C@H](Cc2ccccc2)NC(=O)c2ccc(F)cc2)c(Cl)cc1S(=O)(=O)NC(C)(CO)CO` [Compound I-142] fall in the same range of IC50: 1 to 10 µM for the first, 1 to 10 µM for the second.

`COc1cc(NC(=O)[C@H](CC2CCOCC2)NC(=O)c2ccc(F)cc2)ccc1S(=O)(=O)NC1CCOCC1` [Compound I-134] and `COc1cc(NC(=O)[C@H](CC2CCNCC2)NC(=O)c2ccc(F)cc2)ccc1S(=O)(=O)NC1CCOCC1` [Compound I-135] fall in the same range of IC50: 0.05 to 1 µM for the first, 0.05 to 1 µM for the second.

`O=C(N[C@@H](CC1CCNCC1)C(=O)Nc1ccc(S(=O)(=O)NC2CCOCC2)nc1)c1ccc(F)cc1` [Compound I-144] and `CN1CCC(C[C@H](NC(=O)c2ccc(F)nc2)C(=O)Nc2ccc(S(=O)(=O)NC(C)(C)C)cc2)CC1` [Compound I-183] fall in the same range of IC50: 0.05 to 1 µM for the first, 0.05 to 1 µM for the second.

`CC(C)(C)NS(=O)(=O)c1ccc(NC(=O)[C@H](Cc2ccccc2)NC(=O)c2cc[nH]n2)cc1` [Compound I-178] and `CC(C)(C)NS(=O)(=O)c1ccc(NC(=O)[C@H](Cc2ccccc2)NC(=O)N2CC3(COC3)C2)cc1` [Compound I-179] fall in the same range of IC50: 1 to 10 µM for the first, 1 to 10 µM for the second.

`CN1CCN(C(=O)N[C@@H](Cc2ccccc2)C(=O)Nc2ccc(S(=O)(=O)NC(C)(C)C)cc2)CC1` [Compound I-180] gave an IC50 of 1 to 10 µM.

Same assay, conditions: […] recombinant USP30, 25 nM Ubiquitin-Rhodamine, fluorescence

First: CC(C)(C)NS(=O)(=O)c1ccc(NC(=O)[C@H](Cc2ccccc2)NC(=O)c2ccc(F)cc2)cc1O [Compound I-63]
Second: CC(C)(C)NS(=O)(=O)c1ccc(NC(=O)[C@H](Cc2ccccc2)NC(=O)c2cc[nH]c2)cc1 [Compound I-181]
The IC50 of the first is lower: < 0.05 µM for the first, > 10 µM for the second.

`CC(C)(C)NS(=O)(=O)c1ccc(NC(=O)C(Cc2ccccc2)c2nnc(-c3ccccc3)[nH]2)cc1` (stereo not drawn) [Compound I-89] and `CC(C)(C)NS(=O)(=O)c1ccc(NC(=O)C(Cc2ccccc2)c2nnc(-c3ccc(F)cc3)[nH]2)cc1` (stereo not drawn) [Compound I-90] cannot be ordered by IC50: > 10 µM for the first, > 10 µM for the second.

First: O=C(Nc1ccc(S(=O)(=O)N[C@@H]2CCOC2)cc1)[C@@H]1C[C@@H](c2ccccc2)CN1C(=O)c1ccc(F)cc1 [Compound I-92]
Second: CC(C)(C)NS(=O)(=O)c1ccc(NC(=O)[C@H](CC2CCN(c3ccccc3)CC2)NC(=O)c2ccc(F)cc2)cc1 [Compound I-116]
The IC50 of the first is higher: 1 to 10 µM for the first, < 0.05 µM for the second.

`O=C(N[C@@H](Cc1ccccc1)C(=O)NC1CCN(C(=O)OCc2ccccc2)CC1)c1ccc(F)cc1` [Compound I-113] and `CC(=O)N1CCC(NC(=O)[C@H](Cc2ccccc2)NC(=O)c2ccc(F)cc2)CC1` [Compound I-114] cannot be ordered by IC50: > 10 µM for the first, > 10 µM for the second.

`CNS(=O)(=O)N1CCC(NC(=O)[C@H](Cc2ccccc2)NC(=O)c2ccc(F)cc2)CC1` [Compound I-118] and `CNC(=O)N1CCC(NC(=O)[C@H](Cc2ccccc2)NC(=O)c2ccc(F)cc2)CC1` [Compound I-119] cannot be ordered by IC50: > 10 µM for the first, > 10 µM for the second.

`N#CN1CCC(NC(=O)[C@H](Cc2ccccc2)NC(=O)c2ccc(F)cc2)CC1` [Compound I-124] and `N#CCN1CC[C@@H](NC(=O)[C@H](Cc2ccccc2)NC(=O)c2ccc(F)cc2)C1` [Compound I-154] cannot be ordered by IC50: > 10 µM for the first, > 10 µM for the second.

Going from `CC(C)(NS(=O)(=O)c1ccc(NC(=O)[C@H](CC2CCOCC2)NC(=O)c2ccc(F)cc2)cc1)C(F)(F)F` [Compound I-126] to `CC(C)(C)NS(=O)(=O)N1CC[C@@H](NC(=O)[C@H](Cc2ccccc2)NC(=O)c2ccc(F)cc2)C1` [Compound I-162], the IC50 rises from < 0.05 µM to > 10 µM. The first is the more potent here.

`O=C(N[C@@H](Cc1ccccc1)C(=O)N[C@@H]1CCNC1)c1ccc(F)cc1` [Compound I-146] and `CN1CC[C@@H](NC(=O)[C@H](Cc2ccccc2)NC(=O)c2ccc(F)cc2)C1` [Compound I-152] cannot be ordered by IC50: > 10 µM for the first, > 10 µM for the second.

`O=C(N[C@@H](Cc1ccccc1)C(=O)N[C@@H]1CCN(S(=O)(=O)NC2COC2)C1)c1ccc(F)cc1` [Compound I-169] and `O=C(N[C@@H](Cc1ccccc1)C(=O)N[C@@H]1CCN(S(=O)(=O)NC2CCOC2)C1)c1ccc(F)cc1` (stereo partly drawn) [Compound I-170] cannot be ordered by IC50: > 10 µM for the first, > 10 µM for the second.

For `CC(C)(C)NS(=O)(=O)c1ccc(NC(=O)[C@H](Cc2ccccc2)NC(=O)c2c[nH]cn2)cc1` [Compound I-176], the IC50 was > 10 µM.

— patent US20250162989A1, “USP30 INHIBITORS AND USES THEREOF” (Vincere Biosciences, Inc., priority 2021, published 2025)
